Results taken from PubChem BioAssay (NCI).
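48-hour exposure; five concentrations; linearly interpolated endpoints. At the GI50, growth is halved. TGI marks complete inhibition of growth.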

System: MDA-MB-468 breast
Assay: growth of human tumour cells (NCI), 48 h

Row | Compound | GI50 | TGI
1 | NCCCNc1nc2ccccc2c2c(=O)c3cc(F)cc(F)c3sc12 | 1710 nM | 3810 nM
2 | CN1CCC(COc2cnc(-c3cccc(Cn4nc(-c5cccc(C#N)c5)ccc4=O)c3)nc2)CC1 | 1490 nM | 3230 nM
3 | COc1cc2nccc(Oc3ccc(NC(=O)NC4CC4)c(Cl)c3)c2cc1C(N)=O | 12500 nM | > 80800 nM
4 | C[n+]1c(/C=C/c2c[nH]c3ccccc23)ccc2ccccc21 | 1800 nM | 13000 nM
5 | O=C1/C(=C\c2ccc(F)cc2)CN(C(=O)c2ccccc2)C/C1=C\c1ccc(F)cc1 | 1630 nM | 3710 nM
6 | O=C(COc1ccc(/C=C2\COc3ccccc3C2=O)cc1)Nc1nccs1 | 2040 nM | 4730 nM
7 | COc1ccc2sc3cccc(NCCN(C)C)c3c(=O)c2c1 | 2000 nM | 4500 nM
8 | CCOC(=O)c1ccccc1OC(=O)NNc1ccccc1 | 11100 nM | > 100000 nM
9 | CSC1=Nc2c(c(C)c(-c3ccccc3)n2CCCN2CCCCC2)C2=NC(=O)C[C@H](C)N12 | 2460 nM | 9510 nM
10 | CCN(CC)c1ccc(NC2=C(Cl)C(=O)c3nc(C)ccc3C2=O)cc1 | 1880 nM | 4050 nM
11 | C[C@]12CCc3nc(Nc4cccc(O)c4)sc3C1=CC[C@@H]1[C@@H]2CC[C@]2(C)/C(=N\NC(N)=S)CC[C@@H]12 | 1860 nM | 4230 nM
12 | COC1=CC(c2ccc[nH]2)=N/C1=C\c1[nH]c(C)c(CC(=O)OCc2ccccc2)c1CCC(=O)OCc1ccccc1 | 510 nM | 2960 nM
13 | Cc1ccc(Cl)cc1Nc1nc(C(F)(F)F)ccc1C(=O)N/N=C/c1cccnc1 | 1410 nM | 10200 nM
14 | COC(=O)[C@@H](C)C[C@H](Cc1cn(C)c2ccccc12)NC(=O)c1csc([C@@H](C[C@H](C(C)C)N(C)C(=O)[C@@H](NC(=O)[C@H]2CCCCN2C)C(C)C)OC(C)=O)n1 | 5.85 nM | > 16700 nM
15 | O=C1CC[C@H](N2C(=O)c3cccc4c(Cc5ccc(CN6CCOCC6)cc5)ccc2c34)C(=O)N1 | 2730 nM | 62500 nM
16 | N#Cc1c(NC(=O)NCc2ccccc2)sc2c1CCCC2 | 425 nM | 11300 nM
17 | CCCCCCCC/C=C/CCCCCCCC1=NC(C)(C)CN1CC(C)O (stereo not given) | 4870 nM | 10900 nM
18 | Cn1cc(C2=C(c3ccccc3[N+](=O)[O-])C(=O)NC2=O)c2ccccc21 | 4080 nM | 10500 nM
19 | COc1ccc(/C=C(/C(=O)N2CCN(c3ccccc3)CC2)c2cc(OC)c(OC)c(OC)c2)cc1N | 251 nM | > 100000 nM
20 | CCN(CC)CCNc1ccc(C)c2sc3cc(Cl)ccc3c(=O)c12 | 2070 nM | 4210 nM
21 | CC[C@H]1CN2CCc3cc(OC)c(OC)cc3C2C[C@@H]1CC1NCCc2cc(OC)c(OC)cc21 (stereo not given in full) | 11.8 nM | 37.7 nM
22 | Cc1cc(Nc2ccc(OCc3ccccc3)cc2)nc2cc(O)ccc12 | 2590 nM | 8740 nM
23 | Oc1ccc(CSc2nnc(-c3ccncc3)o2)c2cccnc12 | 2270 nM | 8640 nM
24 | COc1cccc(CCC2CCCN(c3cc(C)nc(N)n3)C2)c1 (stereo not given) | 180 nM | 952 nM

Row | Compound | GI50 | TGI
25 | COc1ccc(C(=O)Nc2ncc(Cc3cccc(Cl)c3)s2)cc1OC | 307 nM | > 95900 nM
26 | CC(C)(C)N1CCC1CN (stereo not given) | > 100000 nM | > 100000 nM
27 | Nc1ccccc1NC(=O)c1ccc(CNc2nccc(-c3cccnc3)n2)cc1 | 496 nM | 2250 nM
28 | CCOC(=O)C1=C(C)N=c2s/c(=C\c3ccccc3O)c(=O)n2C1c1ccc(OC)c2ccccc12 (stereo not given) | 4550 nM | 21200 nM
29 | COc1cc([C@@H]2c3cc4c(c(O)c3C[C@H]3COC(=O)[C@@H]32)OCO4)cc(OC)c1OC | 65.7 nM | 311 nM
30 | CSc1ccc(-c2ccccc(=O)c2O)cc1 | 334 nM | 4180 nM
31 | NS(=O)(=O)OCC1OC(n2cnc3cncnc32)C(O)C1O (stereo not given) | 18.9 nM | 48.5 nM
32 | C[C@]12CC[C@@H]3c4cc(OC(F)F)c(O)cc4CC[C@H]3[C@@H]1CC[C@@H]2OS(N)(=O)=O | 504 nM | 30400 nM
33 | Cc1ccc(NC(=O)c2ccc(CN3CCN(C)CC3)cc2)cc1Nc1nccc(-c2cccnc2)n1 | 13900 nM | 36200 nM
34 | Cc1cccc(-c2[nH]ncc2-c2ccc3ncccc3n2)n1 | 7340 nM | > 16500 nM
35 | CN(C)c1ccc(/C=C/c2ccnc3c(O)cccc23)cc1 | 574 nM | 3340 nM
36 | CC[C@H](NC(=O)[C@H]1CCCCN1C)C(=O)N(C)[C@H](C[C@@H](OC(C)=O)c1nc(C(=O)N[C@@H](Cc2ccccc2)C[C@H](C)C(=O)O)cs1)C(C)C | 1.99 nM | > 14300 nM
37 | Nc1c(C(=O)c2ccc(-c3cccnc3)cc2)cnn1-c1ccc(F)cc1 | > 25000 nM | > 25000 nM
38 | CCOC(=O)[C@@H](C)C[C@H](Cc1ccccc1)NC(=O)c1nc([C@@H](C[C@H](C(C)C)N(C)C(=O)[C@@H](NC(=O)[C@H]2CCCCN2C)C(C)C)OC(C)=O)sc1CCOCc1ccccc1 | 37.4 nM | 492 nM
39 | COc1cc2c(c(OC)c1OC)-c1ccc(OC)c(=O)cc1[C@@H](N)CC2 | < 10 nM | 
40 | Cc1cc(=O)[nH]c(N/N=C/c2cc(Br)ccc2O)n1 | 460 nM | 16500 nM
41 | CCOC(=O)c1ccc(Nc2sc(C(=O)c3ccc(Br)cc3)c(N)c2C#N)cc1 | 666 nM | > 100000 nM
42 | NC1=CC(=O)c2cccnc2C1=O | 1350 nM | 3030 nM
43 | C=C(C)[C@@H]1CC[C@]2(COCCC#N)CC[C@]3(C)[C@H](CC[C@@H]4[C@@](C)(CCCNCCC#N)[C@H](C(=C)C)CC[C@]43C)[C@@H]12 | 17300 nM | > 50000 nM
44 | CC1(C)N=C(N)N=C(N)N1c1ccc(CCCCc2ccccc2)c(Cl)c1 | 19.6 nM | 1120 nM
45 | COc1ccc(N=Cc2c(O)ccc3c2oc2cc(Cl)c(O)c(Cl)c23)cc1 | 14200 nM | 67600 nM
46 | CC[C@@H]1[C@@H](C)O[C@@](O)([C@@H](C)[C@H](O)[C@H](C)[C@H]2OC(=O)/C=C/C=C/[C@H](C)[C@@H]([C@@H](C)[C@@H](O)[C@H](C)[C@@]3(O)C[C@@H](O[C@H]4C[C@@H](O)[C@H](O)C(C)O4)[C@H](CC)[C@@H](C)O3)OC(=O)/C=C/C=C/[C@@H]2C)C[C@H]1O[C@@H]1C[C@@H](O)[C@H](O)C(C)O1 (stereo not given in full) | 68.8 nM | 204 nM
47 | Cc1cc(Cl)cc2c(N=Nc3ccc(S(N)(=O)=O)cc3)c(O)[nH]c12 | > 25000 nM | > 25000 nM
48 | c1ccc(N2N=C(c3cccc(Nc4ccncc4)c3)CC2c2ccc3c(c2)OCO3)cc1 (stereo not given) | 1470 nM | 3000 nM
